# Assay results reported in ChEMBL document CHEMBL1201862, “PubChem BioAssay data set” (2004).
#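 In this assay, cells in 96-well plates receive the compound at five concentrations for 48 hours. Endpoints are linearly interpolated between the surrounding concentrations. GI50 marks 50% less growth.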 Calls of active or inactive are those of the source. Rule as the data show it: active = GI50 up to about 1.1 µM and inactive = higher.
# Experiments:
# Experiment in all cases: NCI tumour cell line growth inhibition, 48 h
# MDA-MB-435 = system: MDA-MB-435
# SW-620 = system: SW-620
# U-251 = system: U-251
# OVCAR-3 = system: OVCAR-3
# EKVX = system: EKVX
# SF-295 = system: SF-295
# HT-29 = system: HT-29
# ACHN = system: ACHN
# RXF 393 = system: RXF 393
# M14 = system: M14
# PC-3 = system: PC-3
# SNB-19 = system: SNB-19
# A549 = system: A549
# HOP-92 = system: HOP-92
# KM12 = system: KM12
# A498 = system: A498
# MDA-MB-231 = system: MDA-MB-231
# NCI-H23 = system: NCI-H23
# HCT-15 = system: HCT-15
# NCI-H226 = system: NCI-H226
# SF-539 = system: SF-539
# COLO 205 = system: COLO 205
# NCI/ADR-RES = system: NCI/ADR-RES
# UO-31 = system: UO-31
# OVCAR-8 = system: OVCAR-8
# IGROV-1 = system: IGROV-1
# CAKI-1 = system: CAKI-1
# OVCAR-5 = system: OVCAR-5
# TK-10 = system: TK-10
# OVCAR-4 = system: OVCAR-4
# MDA-N = system: MDA-N
# SK-MEL-28 = system: SK-MEL-28
# SNB-75 = system: SNB-75
# SF-268 = system: SF-268
# SK-MEL-5 = system: SK-MEL-5
# HCT-116 = system: HCT-116
# SN12C = system: SN12C
# DU-145 = system: DU-145
# K562 = system: K562
# Hs-578T = system: Hs-578T
# LOX IMVI = system: LOX IMVI
# SR = system: SR
# SK-MEL-2 = system: SK-MEL-2
# HCC 2998 = system: HCC 2998
# NCI-H522 = system: NCI-H522
# 786-0 = system: 786-0
# UACC-257 = system: UACC-257
# HL-60 = system: HL-60
# HOP-62 = system: HOP-62
# Malme-3M = system: Malme-3M
# SK-OV-3 = system: SK-OV-3
# T47D = system: T47D
# MOLT-4 = system: MOLT-4
# NCI-H460 = system: NCI-H460
# CCRF-CEM = system: CCRF-CEM
# UACC-62 = system: UACC-62
# RPMI-8226 = system: RPMI-8226
# MCF7 = system: MCF7
smiles,measurement,setting,value
COc1cc(OC)c(CSCC(NC(=O)OCC2c3ccccc3-c3ccccc32)C(=O)O)c(OC)c1 (stereo unspecified),GI50,MDA-MB-435,> 10 µM (inactive)
same,GI50,SW-620,> 10 µM (inactive)
same,GI50,U-251,> 10 µM (inactive)
same,GI50,OVCAR-3,> 10 µM (inactive)
same,GI50,EKVX,> 10 µM (inactive)
same,GI50,SF-295,> 10 µM (inactive)
same,GI50,HT-29,> 10 µM (inactive)
same,GI50,ACHN,> 10 µM (inactive)
same,GI50,RXF 393,> 10 µM (inactive)
same,GI50,M14,> 10 µM (inactive)
same,GI50,PC-3,> 10 µM (inactive)
same,GI50,SNB-19,> 10 µM (inactive)
same,GI50,A549,> 10 µM (inactive)
same,GI50,HOP-92,> 10 µM (inactive)
same,GI50,KM12,> 10 µM (inactive)
same,GI50,A498,> 10 µM (inactive)
same,GI50,MDA-MB-231,> 10 µM (inactive)
same,GI50,NCI-H23,> 10 µM (inactive)
same,GI50,HCT-15,> 10 µM
same,GI50,NCI-H226,5.22 µM (inactive)
same,GI50,SF-539,> 10 µM (inactive)
same,GI50,COLO 205,> 10 µM (inactive)
same,GI50,NCI/ADR-RES,> 10 µM (inactive)
same,GI50,UO-31,5.68 µM (inactive)
same,GI50,OVCAR-8,> 10 µM (inactive)
same,GI50,IGROV-1,> 10 µM (inactive)
same,GI50,CAKI-1,> 10 µM (inactive)
same,GI50,OVCAR-5,> 10 µM (inactive)
same,GI50,TK-10,> 10 µM (inactive)
same,GI50,OVCAR-4,> 10 µM (inactive)
same,GI50,MDA-N,> 10 µM (inactive)
same,GI50,SK-MEL-28,> 10 µM (inactive)
same,GI50,SNB-75,6.95 µM (inactive)
same,GI50,SF-268,> 10 µM (inactive)
same,GI50,SK-MEL-5,> 10 µM (inactive)
same,GI50,HCT-116,> 10 µM (inactive)
same,GI50,SN12C,> 10 µM (inactive)
same,GI50,DU-145,> 10 µM (inactive)
Nn1c(Cc2ccc(Cl)cc2)n[nH]c1=O,GI50,MDA-MB-435,> 100 µM (inactive)
same,GI50,SW-620,> 100 µM (inactive)
same,GI50,U-251,> 100 µM (inactive)
same,GI50,OVCAR-3,> 100 µM (inactive)
same,GI50,EKVX,> 100 µM (inactive)
same,GI50,SF-295,> 100 µM (inactive)
same,GI50,K562,> 100 µM (inactive)
same,GI50,HT-29,> 100 µM (inactive)
same,GI50,ACHN,> 100 µM (inactive)
same,GI50,RXF 393,> 100 µM (inactive)
same,GI50,M14,> 100 µM (inactive)
same,GI50,Hs-578T,> 100 µM (inactive)
same,GI50,SNB-19,> 100 µM (inactive)
same,GI50,LOX IMVI,> 100 µM (inactive)
same,GI50,A549,> 100 µM (inactive)
same,GI50,HOP-92,> 100 µM (inactive)
same,GI50,KM12,> 100 µM (inactive)
same,GI50,A498,> 100 µM (inactive)
same,GI50,SR,> 100 µM (inactive)
same,GI50,MDA-MB-231,> 100 µM (inactive)
same,GI50,NCI-H23,> 100 µM (inactive)
same,GI50,SK-MEL-2,> 100 µM (inactive)
same,GI50,HCC 2998,> 100 µM (inactive)
same,GI50,HCT-15,> 100 µM
same,GI50,NCI-H226,> 100 µM (inactive)
same,GI50,NCI-H522,> 100 µM (inactive)
same,GI50,SF-539,> 100 µM (inactive)
same,GI50,COLO 205,> 100 µM (inactive)
same,GI50,786-0,> 100 µM (inactive)
same,GI50,UACC-257,> 100 µM (inactive)
same,GI50,HL-60,> 100 µM (inactive)
same,GI50,HOP-62,72.1 µM (inactive)
same,GI50,Malme-3M,> 100 µM (inactive)
same,GI50,NCI/ADR-RES,> 100 µM (inactive)
same,GI50,UO-31,34.3 µM (inactive)
same,GI50,OVCAR-8,> 100 µM (inactive)
same,GI50,IGROV-1,> 100 µM (inactive)
same,GI50,SK-OV-3,> 100 µM (inactive)
same,GI50,CAKI-1,50.5 µM (inactive)
same,GI50,OVCAR-5,> 100 µM (inactive)
same,GI50,TK-10,> 100 µM (inactive)
same,GI50,T47D,> 100 µM (inactive)
same,GI50,OVCAR-4,> 100 µM (inactive)
same,GI50,MDA-N,> 100 µM (inactive)
same,GI50,SK-MEL-28,> 100 µM (inactive)
same,GI50,MOLT-4,> 100 µM (inactive)
same,GI50,SNB-75,> 100 µM (inactive)
same,GI50,SF-268,> 100 µM (inactive)
same,GI50,SK-MEL-5,> 100 µM (inactive)
same,GI50,HCT-116,> 100 µM (inactive)
same,GI50,SN12C,> 100 µM (inactive)
same,GI50,NCI-H460,> 100 µM (inactive)
same,GI50,CCRF-CEM,> 100 µM (inactive)
same,GI50,UACC-62,> 100 µM (inactive)
same,GI50,DU-145,> 100 µM (inactive)
same,GI50,RPMI-8226,> 100 µM (inactive)
CCC1(C)N=c2c(ncn2N=C(C)C)=C(C(N)=O)N1 (stereo unspecified),GI50,MDA-MB-435,> 100 µM (inactive)
same,GI50,SW-620,> 100 µM (inactive)
same,GI50,U-251,> 100 µM (inactive)
same,GI50,OVCAR-3,> 100 µM (inactive)
same,GI50,EKVX,> 100 µM (inactive)
same,GI50,SF-295,> 100 µM (inactive)
same,GI50,K562,> 100 µM (inactive)
same,GI50,HT-29,> 100 µM (inactive)
same,GI50,ACHN,> 100 µM (inactive)
same,GI50,RXF 393,> 100 µM (inactive)
same,GI50,M14,> 100 µM (inactive)
same,GI50,PC-3,> 100 µM (inactive)
same,GI50,Hs-578T,> 100 µM (inactive)
same,GI50,SNB-19,> 100 µM (inactive)
same,GI50,LOX IMVI,> 100 µM (inactive)
same,GI50,A549,> 100 µM (inactive)
same,GI50,HOP-92,0.426 µM (active)
same,GI50,KM12,22.6 µM (inactive)
same,GI50,A498,> 100 µM (inactive)
same,GI50,SR,> 100 µM (inactive)
same,GI50,MDA-MB-231,> 100 µM (inactive)
same,GI50,NCI-H23,> 100 µM (inactive)
same,GI50,HCC 2998,> 100 µM (inactive)
same,GI50,HCT-15,> 100 µM
same,GI50,NCI-H226,> 100 µM (inactive)
same,GI50,NCI-H522,> 100 µM (inactive)
same,GI50,SF-539,> 100 µM (inactive)
same,GI50,COLO 205,> 100 µM (inactive)
same,GI50,786-0,> 100 µM (inactive)
same,GI50,UACC-257,> 100 µM (inactive)
same,GI50,HL-60,> 100 µM (inactive)
same,GI50,HOP-62,> 100 µM (inactive)
same,GI50,Malme-3M,> 100 µM (inactive)
same,GI50,NCI/ADR-RES,> 100 µM (inactive)
same,GI50,OVCAR-8,> 100 µM (inactive)
same,GI50,IGROV-1,> 100 µM (inactive)
same,GI50,SK-OV-3,> 100 µM (inactive)
same,GI50,CAKI-1,> 100 µM (inactive)
same,GI50,OVCAR-5,> 100 µM (inactive)
same,GI50,TK-10,> 100 µM (inactive)
same,GI50,T47D,> 100 µM (inactive)
same,GI50,OVCAR-4,> 100 µM (inactive)
same,GI50,MDA-N,> 100 µM (inactive)
same,GI50,SK-MEL-28,> 100 µM (inactive)
same,GI50,SNB-75,> 100 µM (inactive)
same,GI50,SF-268,> 100 µM (inactive)
same,GI50,SK-MEL-5,> 100 µM (inactive)
same,GI50,HCT-116,> 100 µM (inactive)
same,GI50,SN12C,> 100 µM (inactive)
same,GI50,NCI-H460,> 100 µM (inactive)
same,GI50,CCRF-CEM,> 100 µM (inactive)
same,GI50,UACC-62,> 100 µM (inactive)
same,GI50,DU-145,> 100 µM (inactive)
same,GI50,RPMI-8226,> 100 µM (inactive)
O=C1CC(c2ccccc2Cl)Oc2ccccc21 (stereo unspecified),GI50,MDA-MB-435,18.5 µM (inactive)
same,GI50,SW-620,25.5 µM (inactive)
same,GI50,U-251,27.7 µM (inactive)
same,GI50,EKVX,14 µM (inactive)
same,GI50,SF-295,40.6 µM (inactive)
same,GI50,K562,17.3 µM (inactive)
same,GI50,HT-29,10.8 µM (inactive)
same,GI50,RXF 393,17.2 µM (inactive)
same,GI50,M14,25.9 µM (inactive)
same,GI50,PC-3,31.3 µM (inactive)
same,GI50,Hs-578T,26.3 µM (inactive)
same,GI50,MCF7,11.4 µM (inactive)
same,GI50,SNB-19,34.9 µM (inactive)
same,GI50,LOX IMVI,40.4 µM (inactive)
same,GI50,HOP-92,25 µM (inactive)
same,GI50,KM12,27 µM (inactive)
same,GI50,A498,> 100 µM (inactive)
same,GI50,SR,23.2 µM (inactive)
same,GI50,MDA-MB-231,26.9 µM (inactive)
same,GI50,SK-MEL-2,19.9 µM (inactive)
same,GI50,HCC 2998,71.1 µM (inactive)
same,GI50,HCT-15,24.7 µM
same,GI50,NCI-H226,3.84 µM (inactive)
same,GI50,SF-539,16 µM (inactive)
same,GI50,COLO 205,25.4 µM (inactive)
same,GI50,786-0,29 µM (inactive)
same,GI50,UACC-257,> 100 µM (inactive)
same,GI50,HL-60,32.4 µM (inactive)
same,GI50,HOP-62,25.9 µM (inactive)
same,GI50,NCI/ADR-RES,13.1 µM (inactive)
same,GI50,UO-31,57.5 µM (inactive)
same,GI50,OVCAR-8,26.4 µM (inactive)
same,GI50,IGROV-1,21.4 µM (inactive)
same,GI50,SK-OV-3,> 100 µM (inactive)
same,GI50,CAKI-1,40.9 µM (inactive)
same,GI50,TK-10,98.6 µM (inactive)
same,GI50,T47D,43 µM (inactive)
same,GI50,OVCAR-4,51.9 µM (inactive)
same,GI50,SK-MEL-28,> 100 µM (inactive)
same,GI50,SNB-75,22.7 µM (inactive)
same,GI50,SF-268,37.2 µM (inactive)
same,GI50,SK-MEL-5,32.8 µM (inactive)
same,GI50,HCT-116,45 µM (inactive)
same,GI50,NCI-H460,28.8 µM (inactive)
same,GI50,CCRF-CEM,33.9 µM (inactive)
same,GI50,UACC-62,45.3 µM (inactive)
same,GI50,DU-145,45 µM (inactive)
same,GI50,RPMI-8226,17.5 µM (inactive)
